Measured values taken from patent US20260294915A1, “COMBINATION THERAPY COMPRISING A MAT2A INHIBITOR AND A TOPOISOMERASE INHIBITOR, A SPLICING INHIBITOR SULFONAMIDE, OR A KIF18 INHIBITOR” (IDEAYA BIOSCIENCES, INC., priority 2023, published 2026).

Columns and labels:
Type in all cases: cell-based
SW900 = assay: 10-day proliferation (CTG), equimolar Compound A + Compound B (Example 1); details: Homo sapiens, SW900, 240 h, 10 days, single agent or 1:1 combo; for IC30: read-out: gIC30; for IC40: read-out: gIC40; for IC50: read-out: gIC50; for IC60: read-out: gIC60; for IC70: read-out: gIC70; for IC80: read-out: gIC80; for IC90: read-out: gIC90; for IC100: read-out: gIC100
Protocol: (§1) A 10-day proliferation assay was performed in a panel of 5 MTAP-deficient and 2 wild type non-small cell lung and bladder cancer cell lines. Optimal cell seeding for all cell lines was determined by assessing the growth over a range of seeding densities in a 384-well format to identify conditions that permitted proliferation for 10 days. Cells were then plated at the optimal seeding density and treated with 20-point, two-fold dilution series of Compound A, sovilnesib (“Compound B”), or an equimolar combination of Compound A and Compound B. Concentrations tested for Compound A and Compound B alone or in combination ranged from 0.038 nM to 20,000 nM. A plate of cells was harvested at the time of compound addition to quantify the number of cells at the start of the combination (T0). For cell quantification, the harvested cells were lysed with Promega CellTiter-Glo (CTG) reagent according to the manufacturer's protocol and the chemiluminescent signal was detected on a Synergy Neo plate reader. CTG estimates cell number through detection of cellular ATP levels. Cells were incubated with the drug combinations at 37° C. with 5% CO2 for 10 days. Cells were then lysed with CTG and the chemiluminescent signal was measured.
(§2) CTG values obtained after the 10-day treatment were background subtracted and expressed as a percent of the T0 value. Data were plotted against compound concentration and fit with a four-parameter equation to generate dose response curves for each single agent and the equimolar combination. Growth ICx (gICx) values ranging from gIC30 to gIC100 were interpolated from the fitted curves. Synergistic growth inhibition was assessed by determination of Combination Index (CI) values at these various points across the titration using the mutually non-exclusive equation [Chou, 1983; Chou, 1981] shown below where A equals the gIC value of Compound A, B equals the gICx value of Compound B, and A+B or B+A equals the gICx value of the equimolar combination. A Combination Index value less than 1.0 was considered synergistic.
(§3) Synergy was measured for equimolar combinations of Compound A and Compound B utilizing the mutually non-exclusive Combination Index equation across gICx values ranging from gIC30-gIC100. Combination Index values are shown for: NCI-H838 (3A), SW900 (3B), RT112/84 (3C), UMUC5 (3D), and UMUC11 (3E).

RT112/84 = assay: as above; details: Homo sapiens, RT112/84, 240 h, 10 days, single agent or 1:1 combo; for IC30: read-out: gIC30; for IC40: read-out: gIC40; for IC50: read-out: gIC50; for IC60: read-out: gIC60; for IC70: read-out: gIC70; for IC80: read-out: gIC80; for IC90: read-out: gIC90; for IC100: read-out: gIC100
Protocol: as §1, §2, §3

TCCSUP = assay: 10-day proliferation (CTG), Compound B titration + 1000 nM Compound A, Bliss (Example 2); design: key: GDI on scale −100 to 100; 0 = cell number at T0
Protocol: (§4) A 10-day proliferation assay was performed in a panel of 5 MTAP-deficient and 2 wild type non-small cell lung and bladder cancer cell lines. Optimal cell seeding for all cell lines was determined by assessing the growth over a range of seeding densities in a 384-well format to identify conditions that permitted proliferation for 10 days. Cells were then plated at the optimal seeding density and treated with 20-point, two-fold dilution series of Compound B in combination with a 1000 nM fixed concentration of Compound A. Single agent titrations for Compound A and Compound B were included for comparison. Concentrations tested for Compound A and Compound B alone or in combination ranged from 0.038 nM to 20,000 nM. A plate of cells was harvested at the time of compound addition to quantify the number of cells at the start of the combination (T0). For cell quantification, the harvested cells were lysed with Promega CellTiter-Glo (CTG) reagent according to the manufacturer's protocol and the chemiluminescent signal was detected as described in Example 1 above. Cells were incubated with the drug combinations at 37° C. with 5% CO2 for 10 days. Cells were then lysed with CTG and the chemiluminescent signal was measured.
(§5) CTG values obtained after the 10-day treatment were background subtracted and expressed as a percent of the T0 value set at 100%. Data were plotted against compound concentration and fit with a four-parameter equation to generate single agent dose response curves. Percent inhibition was determined for each combination and single agent concentration compared to a DMSO control. In addition, the overall net growth or death of the cells was calculated and reported as a growth death index (GDI) value on a scale of −100 to 100 with the midpoint (0) being the number of cells at the beginning of the combination (T0).
(§6) Synergistic growth inhibition was assessed using the Bliss Independence model for each point of the Compound B titration in combination with 1000 nM Compound A. The observed growth inhibition at each point was compared to the predicted inhibition based on the additive activity of each single agent. Predicted inhibition was calculated using (Ea+Eb)−(Ea*Eb) where E equals the effect (inhibition) of each single agent (a and b). A difference between the observed inhibition percentage and the predicted inhibition percentage greater than 10% was considered synergistic. A Bliss score was only calculated for combinations eliciting >20% growth inhibition (GDI value <80). Since Bliss is calculated based on growth inhibition, scores within cytotoxic dose ranges may not accurately reflect synergistic cytotoxicity.
(§7) Synergy was measured across the Compound B titration with 1000 nM Compound A by Bliss Independence analysis. Bliss scores >10 are indicated by “*” and are considered synergistic. […] Synergy as reported using Bliss may be underrepresented within cytotoxic dose ranges. Growth death index values are shown for the combination titration and each single agent Compound A (Cmpd A) and Compound B (Cmpd B) on a scale of −100 to 100 with the midpoint (0) being the number of cells at the beginning of the combination (T0). Bliss and GDI values are shown for five MTAP-deficient cell lines: NCI-1H520 (6A), TCCSUP (6B).

NCI-H520 = assay: as above; design: key: GDI on scale −100 to 100; 0 = cell number at T0
Protocol: as §4, §5, §6, §7

[1] = Cmpd B 0.04 nM, combo: + 1000 nM Cmpd A
[2] = Cmpd B 0.1 nM, combo: + 1000 nM Cmpd A
[3] = Cmpd B 0.2 nM, combo: + 1000 nM Cmpd A
[4] = Cmpd B 0.3 nM, combo: + 1000 nM Cmpd A
[5] = Cmpd B 0.6 nM, combo: + 1000 nM Cmpd A
[6] = Cmpd B 1.2 nM, combo: + 1000 nM Cmpd A
[7] = Cmpd B 2.4 nM, combo: + 1000 nM Cmpd A
[8] = Cmpd B 4.9 nM, combo: + 1000 nM Cmpd A
[9] = Cmpd B 9.8 nM, combo: + 1000 nM Cmpd A
[10] = Cmpd B 19.5 nM, combo: + 1000 nM Cmpd A
[11] = Cmpd B 39.1 nM, combo: + 1000 nM Cmpd A
[12] = Cmpd B 78.1 nM, combo: + 1000 nM Cmpd A
[13] = Cmpd B 156.3 nM, combo: + 1000 nM Cmpd A
[14] = Cmpd B 312.5 nM, combo: + 1000 nM Cmpd A
[15] = Cmpd B 625 nM, combo: + 1000 nM Cmpd A
[16] = Cmpd B 1250 nM, combo: + 1000 nM Cmpd A
[17] = Cmpd B 2500 nM, combo: + 1000 nM Cmpd A
[18] = Cmpd B 5000 nM, combo: + 1000 nM Cmpd A
[19] = Cmpd B 10000 nM, combo: + 1000 nM Cmpd A
[20] = Cmpd B 20000 nM, combo: + 1000 nM Cmpd A

## Nc1nc(=O)n(-c2ccccc2Cl)c2nc(C(F)(F)F)ccc12 [Compound A]
SW900
  IC30: 20 µM
  IC40: 20 µM
  IC50: 20 µM
  IC60: 20 µM
  IC70: 20 µM
  IC80: 20 µM
  IC90: 20 µM
  IC100: 20 µM
RT112/84
  IC30: 0.277 µM
  IC40: 0.854 µM
  IC50: 3 µM
  IC60: 16 µM
  IC70: 20 µM
  IC80: 20 µM
  IC90: 20 µM
  IC100: 20 µM
TCCSUP; single agent, 1000 nM Cmpd A
  GDI: 88
NCI-H520; single agent, 1000 nM Cmpd A
  GDI: 100

## Cc1cc(NC(=O)c2ccc(NS(=O)(=O)CCO)cc2N2CCC3(CC2)CC3)nc(N2CCC(F)(F)CC2)n1 [Compound B, N-(2-(4,4-difluoropiperidin-1-yl)-6-methylpyrimidin-4-yl)-4-((2-hydroxyethyl)sulfonamido)-2-(6-azaspiro[2.5]octan-6-yl)benzamide]
SW900
  IC30: 5.48 µM
  IC40: 8.55 µM
  IC50: 12.3 µM
  IC60: 16.6 µM
  IC70: 19.9 µM
  IC80: 20 µM
  IC90: 20 µM
  IC100: 20 µM
RT112/84
  IC30: 0.15 µM
  IC40: 0.17 µM
  IC50: 0.192 µM
  IC60: 0.222 µM
  IC70: 0.273 µM
  IC80: 10.3 µM
  IC90: 20 µM
  IC100: 20 µM
TCCSUP; [1]
  GDI: 100
TCCSUP; [2]
  GDI: 100
TCCSUP; [3]
  GDI: 100
TCCSUP; [4]
  GDI: 100
TCCSUP; [5]
  GDI: 100
TCCSUP; [6]
  GDI: 100
TCCSUP; [7]
  GDI: 100
TCCSUP; [8]
  GDI: 100
TCCSUP; [9]
  GDI: 100
TCCSUP; [10]
  GDI: 100
TCCSUP; [11]
  GDI: 100
TCCSUP; [12]
  GDI: 76
TCCSUP; [13]
  GDI: 38
TCCSUP; [14]
  GDI: 15
TCCSUP; [15]
  GDI: 8
TCCSUP; [16]
  GDI: 10
TCCSUP; [17]
  GDI: 11
TCCSUP; [18]
  GDI: 6
TCCSUP; [19]
  GDI: −5
TCCSUP; [20]
  GDI: −95
NCI-H520; [1]
  GDI: 100
NCI-H520; [2]
  GDI: 100
NCI-H520; [3]
  GDI: 100
NCI-H520; [4]
  GDI: 100
NCI-H520; [5]
  GDI: 100
NCI-H520; [6]
  GDI: 100
NCI-H520; [7]
  GDI: 100
NCI-H520; [8]
  GDI: 100
NCI-H520; [9]
  GDI: 100
NCI-H520; [10]
  GDI: 100
NCI-H520; [11]
  GDI: 100
NCI-H520; [12]
  GDI: 100
NCI-H520; [13]
  GDI: 100
NCI-H520; [14]
  GDI: 85
NCI-H520; [15]
  GDI: 77
NCI-H520; [16]
  GDI: 92
NCI-H520; [17]
  GDI: 92
NCI-H520; [18]
  GDI: 61
NCI-H520; [19]
  GDI: 17
NCI-H520; [20]
  GDI: −57
